This note sets out measurements from patent US10513493B2, “Cyclopropylamines as LSD1 inhibitors” (Incyte Corporation, priority 2014, dated 2019).

A value given as a limit tells only on which side of the number the result lay.

The assay deals with LSD-1 enzyme (Homo sapiens (Human), UniProt O60341). The assay can be described thus: LANCE LSD1/KDM1A demethylase assay (LSD1 histone demethylase biochemical assay). Particulars: 1 nM LSD-1 enzyme, 1 hour preincubation at 25° C., 0.4 μM Biotin-labeled Histone H3 peptide substrate. The method, then:
Example A: LSD1 histone demethylase biochemical assay
LANCE LSD1/KDM1A demethylase assay—10 μL of 1 nM LSD-1 enzyme (ENZO BML-SE544-0050) in the assay buffer (50 mM Tris, pH 7.5, 0.01% Tween-20, 25 mM NaCl, 5 mM DTT) were preincubated for 1 hour at 25° C. with 0.8 μL compound/DMSO dotted in black 384 well polystyrene plates. Reactions were started by addition of 10 μL of assay buffer containing 0.4 μM Biotin-labeled Histone H3 peptide substrate: ART-K(Me1)-[…]-GGK(Biotin) SEQ ID NO: 1 (AnaSpec 64355) and incubated for 1 hour at 25° C. Reactions were stopped by addition of 10 μL 1× LANCE Detection Buffer (PerkinElmer CR97-100) supplemented with 1.5 nM Eu-anti-unmodified H3K4 Antibody (PerkinElmer TRF0404), and 225 nM LANCE Ultra Streptavidin (PerkinElmer TRF102) along with 0.9 mM Tranylcypromine-HCl (Millipore 616431). After stopping the reactions plates were incubated for 30 minutes and read on a PHERAstar FS plate reader (BMG Labtech).
(In general: In TR-FRET formats the signal depends on donor and acceptor labels being close together.)
By IC50 is commonly meant the concentration that inhibits the measured activity by half. A high value points to lower potency. On to `N#Cc1ccc(N2CC(CN[C@@H]3C[C@H]3c3ccccc3)C2)c(F)c1` (relative stereo) [Example 1, 3-Fluoro-4-[3-({[trans-2-phenylcyclopropyl]amino}methyl)azetidin-1-yl]benzonitrile], for which the IC50 is below 100 nM. The result for `N#Cc1cc(F)c(N2CC(CN[C@@H]3C[C@H]3c3ccccc3)C2)c(F)c1` (relative stereo) [Example 2, 3,5-Difluoro-4-[3-({[trans-2-phenylcyclopropyl]amino}methyl)azetidin-1-yl]benzonitrile] reads below 100 nM; that for `CC(C)NC(=O)c1cc(F)c(N2CC(CN[C@@H]3C[C@H]3c3ccccc3)C2)cc1F` (relative stereo) [Example 3, 2,5-Difluoro-N-isopropyl-4-(3-{[(trans-2-phenylcyclopropyl)amino]methyl}azetidin-1-yl)benzamide], below 100 nM; that for `Cc1nc(N2CC(CN[C@@H]3C[C@H]3c3ccccc3)C2)ccc1C#N` (relative stereo) [Example 4, 2-Methyl-6-[3-({[trans-2-phenylcyclopropyl]amino}methyl)azetidin-1-yl]nicotinonitrile], below 100 nM. Under `CCNC(=O)c1cnc(N2CC(CN[C@@H]3C[C@H]3c3ccccc3)C2)cn1` (relative stereo) [Example 5, N-Ethyl-5-(3-{[(trans-2-phenylcyclopropyl)amino]methyl}azetidin-1-yl)pyrazine-2-carboxamide] stands below 100 nM; under `CC(C)NC(=O)c1cc(F)c(N2CC(CN[C@@H]3C[C@H]3c3ccccc3)C2)c(F)c1` (relative stereo) [Example 6, 3,5-Difluoro-N-isopropyl-4-(3-{[(trans-2-phenylcyclopropyl)amino]methyl}azetidin-1-yl)benzamide], below 100 nM; under `CC(C)NC(=O)c1c(F)cc(N2CC(CN[C@@H]3C[C@H]3c3ccccc3)C2)cc1F` (relative stereo) [Example 7, 2,6-Difluoro-N-isopropyl-4-(3-{[(trans-2-phenylcyclopropyl)amino]methyl}azetidin-1-yl)benzamide], below 100 nM. As for `CC(C)NC(=O)c1ccc(N2CC(CN[C@@H]3C[C@H]3c3ccccc3)C2)c(F)c1F` (relative stereo) [Example 8, 2,3-Difluoro-N-isopropyl-4-(3-{[(trans-2-phenylcyclopropyl)amino]methyl}azetidin-1-yl)benzamide], the 50% inhibitory concentration (IC50) was below 100 nM.

As to `CC(C)NC(=O)c1cc(F)c(N2CC(CN[C@@H]3C[C@H]3c3ccccc3)C2)cc1Cl` (relative stereo) [Example 9, 2-Chloro-5-fluoro-N-isopropyl-4-(3-{[(trans-2-phenylcyclopropyl)amino]methyl}azetidin-1-yl)benzamide], the IC50 was below 100 nM. The result for `CC(C)NC(=O)c1ccc(N2CC(CN[C@@H]3C[C@H]3c3ccccc3)C2)c(F)c1` (relative stereo) [Example 10, 3-Fluoro-N-isopropyl-4-(3-{[(trans-2-phenylcyclopropyl)amino]methyl}azetidin-1-yl)benzamide] reads below 100 nM. The result for `CC(C)NC(=O)c1ccc(N2CC(CN[C@@H]3C[C@H]3c3ccccc3)C2)cc1F` (relative stereo) [Example 11, 2-Fluoro-N-isopropyl-4-(3-{[(trans-2-phenylcyclopropyl)amino]methyl}azetidin-1-yl)benzamide] reads below 100 nM; that for `Cc1cc(C(=O)NC(C)C)c(F)cc1N1CC(CN[C@@H]2C[C@H]2c2ccccc2)C1` (relative stereo) [Example 12, 2-Fluoro-N-isopropyl-5-methyl-4-(3-{[(trans-2-phenylcyclopropyl)amino]methyl}azetidin-1-yl)benzamide], below 100 nM; that for `COc1cc(N2CC(CN[C@@H]3C[C@H]3c3ccccc3)C2)ccc1C(=O)NC(C)C` (relative stereo) [Example 13, N-Isopropyl-2-methoxy-4-(3-{[(trans-2-phenylcyclopropyl)amino]methyl}azetidin-1-yl)benzamide], below 100 nM. Under `CC(C)NC(=O)c1ccc(N2CC(CN[C@@H]3C[C@H]3c3ccccc3)C2)c(Cl)c1` (relative stereo) [Example 14, 3-Chloro-N-isopropyl-4-(3-{[(trans-2-phenylcyclopropyl)amino]methyl}azetidin-1-yl)benzamide] stands below 100 nM; under `O=C(NC1(C(F)(F)F)CC1)c1ccc(N2CC(CN[C@@H]3C[C@H]3c3ccccc3)C2)cn1` (relative stereo) [Example 15, 5-(3-{[(trans-2-Phenylcyclopropyl)amino]methyl}azetidin-1-yl)-N-[1-(trifluoromethyl)cyclopropyl]pyridine-2-carboxamide], below 100 nM. For the molecule `CN1CCN(c2cc(N3CC(CN[C@@H]4C[C@H]4c4ccccc4)C3)ncn2)CC1` (relative stereo) [Example 16, N-({1-[6-(4-Methylpiperazin-1-yl)pyrimidin-4-yl]azetidin-3-yl}methyl)-trans-2-phenylcyclopropanamine], the IC50 is below 100 nM.

The molecule `Cn1cc(N2CC(CN[C@@H]3C[C@H]3c3ccccc3)C2)cn1` (relative stereo) [Example 17, trans-N-{[1-(1-Methyl-1H-pyrazol-4-yl)azetidin-3-yl]methyl}-2-phenylcyclopropanamine] yielded an IC50 below 100 nM. Under `N#CCC1(CN[C@@H]2C[C@H]2c2ccccc2)CCN(c2cccc(Cl)c2C#N)CC1` (relative stereo) [Example 18, 2-Chloro-6-(4-(cyanomethyl)-4-{[(trans-2-phenylcyclopropyl)amino]methyl}piperidin-1-yl)benzonitrile] stands below 100 nM; under `N#CCC1(CN[C@@H]2C[C@H]2c2ccccc2)CCN(c2ncccc2C(F)(F)F)CC1` (relative stereo) [Example 19, {4-{[(trans-2-Phenylcyclopropyl)amino]methyl}-1-[3-(trifluoromethyl)pyridin-2-yl]piperidin-4-yl}acetonitrile], below 100 nM; under `O=C(O)c1cccc(N2CCC(CN[C@@H]3C[C@H]3c3ccccc3)(Cc3ccc(F)cc3)CC2)n1` [Example 20, 6-[4-(4-fluorobenzyl)-4-({[(1R,2S)-2-phenylcyclopropyl]amino}methyl)piperidin-1-yl]pyridine-2-carboxylic acid], below 100 nM.

With `O=C(O)c1ccc(N2CCC(CN[C@@H]3C[C@H]3c3ccccc3)(Cc3ccc(F)cc3)CC2)cn1` [Example 21, 5-[4-(4-fluorobenzyl)-4-({[(1R,2S)-2-phenylcyclopropyl]amino}methyl)piperidin-1-yl]pyridine-2-carboxylic acid], the IC50 was below 100 nM.

`O=C(O)C1(c2ccc(N3CCC(CN[C@@H]4C[C@H]4c4ccccc4)(Cc4ccc(F)cc4)CC3)cc2)CC1` [Example 22, 1-{4-[4-(4-fluorobenzyl)-4-({[(1R,2S)-2-phenylcyclopropyl]amino}methyl)piperidin-1-yl]phenyl}cyclopropanecarboxylic acid] registered an IC50 below 100 nM. Under `COCC1(CN[C@@H]2C[C@H]2c2ccccc2)CCN(c2ccnc(C(=O)O)c2)CC1` [Example 23, 4-[4-(methoxymethyl)-4-({[(1R,2S)-2-phenylcyclopropyl]amino}methyl)piperidin-1-yl]pyridine-2-carboxylic acid] stands below 100 nM; under `COCC1(CN[C@@H]2C[C@H]2c2ccccc2)CCN(c2cccc(C(=O)O)n2)CC1` [Example 24, 6-[4-(methoxymethyl)-4-({[(1R,2S)-2-phenylcyclopropyl]amino}methyl)piperidin-1-yl]pyridine-2-carboxylic acid], below 100 nM; under `CC1(CN[C@@H]2C[C@H]2c2ccccc2)CCN(c2ccc(C(=O)O)nc2)CC1` [Example 25, 5-[4-methyl-4-({[(1R,2S)-2-phenylcyclopropyl]amino}methyl)piperidin-1-yl]pyridine-2-carboxylic acid], below 100 nM.

The molecule `CC1(CN[C@@H]2C[C@H]2c2ccccc2)CCN(c2cccc(C(=O)O)n2)CC1` [Example 26, 6-[4-methyl-4-({[(1R,2S)-2-phenylcyclopropyl]amino}methyl)piperidin-1-yl]pyridine-2-carboxylic acid] registered an IC50 below 100 nM.

As to `CC1(CN[C@@H]2C[C@H]2c2ccccc2)CCN(c2ccnc(C(=O)O)c2)CC1` [Example 27, 4-[4-methyl-4-({[(1R,2S)-2-phenylcyclopropyl]amino}methyl)piperidin-1-yl]pyridine-2-carboxylic acid], the IC50 was below 100 nM. Take `CN(C)C(=O)c1ccc(N2CCC(C)(CN[C@@H]3C[C@H]3c3ccccc3)CC2)cn1` [Example 28, N,N-dimethyl-5-[4-methyl-4-({[(1R,2S)-2-phenylcyclopropyl]amino}methyl)piperidin-1-yl]pyridine-2-carboxamide]: the IC50 was below 100 nM. The result for `CNC(=O)c1ccc(N2CCC(C)(CN[C@@H]3C[C@H]3c3ccccc3)CC2)cn1` [Example 29, N-methyl-5-[4-methyl-4-({[(1R,2S)-2-phenylcyclopropyl]amino}methyl)piperidin-1-yl]pyridine-2-carboxamide] reads below 100 nM; that for `Nc1ccnc(N2CCC(N[C@@H]3C[C@H]3c3ccccc3)CC2)n1` [Example 30, 2-(4-{[(1R,2S)-2-phenylcyclopropyl]amino}piperidin-1-yl)pyrimidin-4-amine], below 100 nM. Under `Nc1ccnc(N2CCC(N[C@H]3C[C@@H]3c3ccccc3)CC2)n1` [Example 31, 2-(4-{[(1S,2R)-2-phenylcyclopropyl]amino}piperidin-1-yl)pyrimidin-4-amine] stands 100 to 500 nM.
